Test results: patent US11752099B2, “Injectable and biodegradable polymer formulations for controlled release of bioactive agents” (W. L. Gore & Associates, Inc., priority 2017, dated 2023)

System: eyes of an animal subject
Conditions: in vivo
Protocol: The copolymer PLA:GA Resomer® RG 756 S, Poly(D,L-lactide-co-glycolide) purchased from Evonik Industries, Germany, was dissolved in 11 g of triacetin (Sigma-Aldrich, St. Louis) in 25 ml glass vials to obtain approximately a 6% solution by maintaining the mixture on a stir plate with a magnetic stir bar. The molecular weight was 76,000 for the PLGA polymer. The solution was processed aseptically through a 0.2 μm sterile filter into 1 ml syringes. Each syringe contained approximately 200 μl of formulation.
The polymer formulations were delivered into the eyes of an animal subject and each eye only received a single injection. […] The in-life period of the polymer formulation injections was approximately 90 days. Approximately every week the intraocular pressure (IOP) was measured.
At retrieval, the eyes were examined and inter ocular pressure (IOP) was obtained. The eyes were gently removed, examined, and fixed in Davidson's Solution for a minimum of 24 hours. Post fixation, the eyes were processed for histological analyses.
The tissue samples were processed to yield histological slides and were examined under microscope for inflammation. […]

IOP immediately post-op | average normalized IOP values, relative to baseline before implantation (FIG. 10) | inflammation on histological slides | time for immediate rise in IOP to return to normal values [min] | visual examination of the eyes at retrieval | Substance | visual inspection with an ophthalmoscope (redness of the retina)
much higher than the baseline | above 100% | revealed inflammation | ≤ 30 |  | Poly(D,L-lactide-co-glycolide) [Resomer® RG 756 S, reference compound] | redness of the retina, a sign of inflammation, in one observation
much higher than the baseline | ≤ 100% | no inflammation was noted | ≤ 30 | no abnormalities observed | D/L-PLA:TMC:PGA [Example 17] | no redness of the retina
